Measurements from ChEMBL document CHEMBL1144272, “Generation of a new class of hNK(2) receptor ligands using the 'fragment approach'” (Bioorg Med Chem Lett, 2005).

Target: T1, Substance-K receptor (Homo sapiens, UniProt P21452)
T1 sequence (P21452 whole entry): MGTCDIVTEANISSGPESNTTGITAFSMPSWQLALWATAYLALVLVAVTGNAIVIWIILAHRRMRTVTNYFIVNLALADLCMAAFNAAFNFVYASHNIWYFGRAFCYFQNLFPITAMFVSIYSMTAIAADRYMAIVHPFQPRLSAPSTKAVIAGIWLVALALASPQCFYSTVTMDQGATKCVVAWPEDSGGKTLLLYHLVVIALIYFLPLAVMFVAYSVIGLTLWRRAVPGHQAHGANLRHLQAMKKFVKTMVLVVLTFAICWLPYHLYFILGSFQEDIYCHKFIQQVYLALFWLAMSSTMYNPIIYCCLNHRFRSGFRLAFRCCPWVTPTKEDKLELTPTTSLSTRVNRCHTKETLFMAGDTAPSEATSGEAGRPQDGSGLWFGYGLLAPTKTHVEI
Test: Binding affinity for human tachykinin receptor 2 was measured by using [125I]NKA as radio ligand

SMILES | Ki [µM]
CC(C)(Oc1ccc(-c2ccccc2)cc1)C(=O)N[C@@H](Cc1ccccc1)C(=O)NCCCN1CCOCC1 | 7.9
COc1cc(COc2ccc(NC(=O)N[C@H](Cc3ccccc3)C(=O)NCCCN3CCOCC3)cc2)cc(OC)c1 | > 1
Cc1ccc(COc2ccc(NC(=O)N[C@@H](Cc3ccccc3)C(=O)NCCCN3CCOCC3)cc2)cc1 | 0.79
O=C(NCCCN1CCOCC1)[C@@H](Cc1ccccc1)NC(=O)N1CCN(c2ccccc2)CC1 | > 3
CC(C)c1ccc(OC(C)(C)C(=O)N[C@H](Cc2ccccc2)C(=O)NCCCN2CCOCC2)cc1 | > 1
CC(C)c1ccc(OC(C)(C)C(=O)N[C@@H](Cc2ccccc2)C(=O)NCCCN2CCOCC2)cc1 | > 1
O=C(Nc1ccc(OCc2cc(F)cc(F)c2)cc1)N[C@@H](Cc1ccccc1)C(=O)NCCCN1CCOCC1 | 0.5
CN(C(=O)N[C@@H](Cc1ccccc1)C(=O)NCCCN1CCOCC1)c1ccc(Oc2ccccc2)cc1 | > 3
CN(C(=O)N[C@H](Cc1ccccc1)C(=O)NCCCN1CCOCC1)c1ccc(Oc2ccccc2)cc1 | > 3
CC(C)(Oc1cccc(-c2ccccc2)c1)C(=O)N[C@H](Cc1ccccc1)C(=O)NCCCN1CCOCC1 | 10
CN(C(=O)N[C@@H](Cc1ccccc1)C(=O)NCCCN1CCOCC1)c1cccc(Oc2ccccc2)c1 | > 3
CC(C)(C)c1ccc(Oc2ccc(NC(=O)N[C@@H](Cc3ccccc3)C(=O)NCCCN3CCOCC3)cc2)cc1 | 0.05
CC(C)(Nc1ccccc1)C(=O)N[C@H](Cc1ccccc1)C(=O)NCCCN1CCOCC1 | > 3
CC(C)(C)c1ccc(Oc2ccc(NC(=O)N[C@H](Cc3ccccc3)C(=O)NCCCN3CCOCC3)cc2)cc1 | 0.12
CN(C(=O)N[C@H](Cc1ccccc1)C(=O)NCCCN1CCOCC1)c1cccc(Oc2ccccc2)c1 | > 3
O=C(N[C@@H](Cc1ccccc1)C(=O)NCCCN1CCOCC1)C(c1ccccc1)c1ccccc1 | 2
O=C(Nc1ccc(OCc2cc(F)cc(F)c2)cc1)N[C@H](Cc1ccccc1)C(=O)NCCCN1CCOCC1 | > 1
O=C(Nc1ccc(Oc2cccc(F)c2)cc1)N[C@@H](Cc1ccccc1)C(=O)NCCCN1CCOCC1 | 0.2
O=C(Nc1ccc(Sc2ccc(F)cc2)cc1)N[C@@H](Cc1ccccc1)C(=O)NCCCN1CCOCC1 | 0.13
O=C(Nc1ccccc1)N[C@H](Cc1ccccc1)C(=O)NCCCN1CCOCC1 | > 10
O=C(Nc1ccc(Oc2ccc(F)cc2)cc1)N[C@@H](Cc1ccccc1)C(=O)NCCCN1CCOCC1 | 0.016

SMILES | Ki [µM]
O=C(NCCCN1CCOCC1)[C@H](Cc1ccccc1)NC(=O)N1CCN(c2ccccc2)CC1 | > 3
CCc1ccc(Oc2ccc(NC(=O)N[C@@H](Cc3ccccc3)C(=O)NCCCN3CCOCC3)cc2)cc1 | 0.2
O=C(Nc1ccc(Oc2ccc(F)cc2)cc1)N[C@H](Cc1ccccc1)C(=O)NCCCN1CCOCC1 | > 0.31
O=C(Nc1ccc(Oc2ccccc2)cc1)N[C@H](Cc1ccccc1)C(=O)NCCCN1CCOCC1 | 0.5
O=C(N[C@H](Cc1ccccc1)C(=O)NCCCN1CCOCC1)c1cccc(-c2ccccc2)c1 | > 10
O=C(NCCCN1CCOCC1)[C@H](Cc1ccccc1)NC(=O)N1CCCC(O)(c2ccccc2)C1 (some centres not stated) | 6.3
O=C(Nc1cccc(Oc2ccccc2)c1)N[C@H](Cc1ccccc1)C(=O)NCCCN1CCOCC1 | 0.3
CC(C)(Nc1ccccc1Oc1ccccc1)C(=O)N[C@@H](Cc1ccccc1)C(=O)NCCCN1CCOCC1 | > 3
O=C(N[C@@H](Cc1ccccc1)C(=O)NCCCN1CCOCC1)c1cccc(-c2ccccc2)c1 | 2
O=C(Nc1ccc(OCc2cccc(Cl)c2)cc1)N[C@H](Cc1ccccc1)C(=O)NCCCN1CCOCC1 | 0.63
O=C(Nc1ccc(OCc2cccc(Cl)c2)cc1)N[C@@H](Cc1ccccc1)C(=O)NCCCN1CCOCC1 | 0.32
O=C(Nc1ccc(Oc2ccc(OC(F)(F)F)cc2)cc1)N[C@@H](Cc1ccccc1)C(=O)NCCCN1CCOCC1 | > 0.1
O=C(N[C@H](Cc1ccccc1)C(=O)NCCCN1CCOCC1)c1ccccc1 | > 10
CC(C)(Oc1ccc(Cl)cc1)C(=O)N[C@H](Cc1ccccc1)C(=O)NCCCN1CCOCC1 | 0.6
CCc1ccc(Oc2ccc(NC(=O)N[C@H](Cc3ccccc3)C(=O)NCCCN3CCOCC3)cc2)cc1 | 0.63
O=C(Nc1ccc(Sc2ccc(F)cc2)cc1)N[C@H](Cc1ccccc1)C(=O)NCCCN1CCOCC1 | > 0.2
CC(C)(Oc1ccccc1-c1ccccc1)C(=O)N[C@H](Cc1ccccc1)C(=O)NCCCN1CCOCC1 | 5
O=C(N[C@@H](Cc1ccccc1)C(=O)NCCCN1CCOCC1)c1ccccc1 | > 10
CC(C)(Oc1ccc(C(F)(F)F)cc1)C(=O)N[C@H](Cc1ccccc1)C(=O)NCCCN1CCOCC1 | > 1
O=C(Nc1ccccc1Oc1ccccc1)N[C@H](Cc1ccccc1)C(=O)NCCCN1CCOCC1 | > 10
CN(Cc1ccccc1)C(=O)N[C@@H](Cc1ccccc1)C(=O)NCCCN1CCOCC1 | 2

SMILES | Ki [µM]
O=C(Nc1ccc(OCc2ccc(C(F)(F)F)cc2)cc1)N[C@H](Cc1ccccc1)C(=O)NCCCN1CCOCC1 | 5
O=C(Nc1ccc(Oc2ccccc2)cc1)N[C@@H](Cc1ccccc1)C(=O)NCCCN1CCOCC1 | 1
O=C(NCCCN1CCOCC1)[C@H](Cc1ccccc1)NC(=O)N1CCC(Cc2ccccc2)CC1 | 1.6
O=C(Nc1ccc(Oc2cccc(F)c2)cc1)N[C@H](Cc1ccccc1)C(=O)NCCCN1CCOCC1 | > 1
CC(C)(Oc1ccc(C(F)(F)F)cc1)C(=O)N[C@@H](Cc1ccccc1)C(=O)NCCCN1CCOCC1 | > 1
O=C(Nc1ccc(Oc2ccc(C(F)(F)F)cc2)cc1)N[C@@H](Cc1ccccc1)C(=O)NCCCN1CCOCC1 | 0.25
CC(C)c1cccc(OC(C)(C)C(=O)N[C@@H](Cc2ccccc2)C(=O)NCCCN2CCOCC2)c1 | > 1
O=C(Nc1cccc(Oc2ccccc2)c1)N[C@@H](Cc1ccccc1)C(=O)NCCCN1CCOCC1 | 0.2
O=C(N[C@H](Cc1ccccc1)C(=O)NCCCN1CCOCC1)C(c1ccccc1)c1ccccc1 | > 10
CC(C)(Oc1ccc(Cl)cc1)C(=O)N[C@@H](Cc1ccccc1)C(=O)NCCCN1CCOCC1 | 1.6
O=C(Nc1ccccc1Oc1ccccc1)N[C@@H](Cc1ccccc1)C(=O)NCCCN1CCOCC1 | 5
CN(C(=O)N[C@@H](Cc1ccccc1)C(=O)NCCCN1CCOCC1)c1cccc(Oc2cccc(F)c2)c1 | > 1
COc1ccc(Oc2ccc(NC(=O)N[C@H](Cc3ccccc3)C(=O)NCCCN3CCOCC3)cc2)cc1 | > 1
CC(C)(Nc1ccccc1)C(=O)N[C@@H](Cc1ccccc1)C(=O)NCCCN1CCOCC1 | > 3
CN(Cc1ccccc1)C(=O)N[C@H](Cc1ccccc1)C(=O)NCCCN1CCOCC1 | 3
O=C(N[C@H](Cc1ccccc1)C(=O)NCCCN1CCOCC1)c1ccccc1-c1ccccc1 | 3
O=C(NCCCN1CCOCC1)[C@@H](Cc1ccccc1)NC(=O)N1CCC(Cc2ccccc2)CC1 | 2
O=C(NCCCN1CCOCC1)[C@@H](Cc1ccccc1)NC(=O)N(c1ccccc1)c1ccccc1 | > 3
CC(C)(Oc1cccc(-c2ccccc2)c1)C(=O)N[C@@H](Cc1ccccc1)C(=O)NCCCN1CCOCC1 | 6.3
COc1cc(COc2ccc(NC(=O)N[C@@H](Cc3ccccc3)C(=O)NCCCN3CCOCC3)cc2)cc(OC)c1 | 0.2
O=C(NCCCN1CCOCC1)[C@H](Cc1ccccc1)NC(=O)N(c1ccccc1)c1ccccc1 | > 3

SMILES | Ki [µM]
CC(C)c1cccc(OC(C)(C)C(=O)N[C@H](Cc2ccccc2)C(=O)NCCCN2CCOCC2)c1 | > 1
O=C(Nc1ccc(Oc2ccc(C(F)(F)F)cc2)cc1)N[C@H](Cc1ccccc1)C(=O)NCCCN1CCOCC1 | > 1
Cc1ccc(COc2ccc(NC(=O)N[C@H](Cc3ccccc3)C(=O)NCCCN3CCOCC3)cc2)cc1 | > 1
O=C(NCCCN1CCOCC1)[C@@H](Cc1ccccc1)NC(=O)N1CCCC(O)(c2ccccc2)C1 (some centres not stated) | > 10
O=C(Nc1ccc(Oc2ccc(OC(F)(F)F)cc2)cc1)N[C@H](Cc1ccccc1)C(=O)NCCCN1CCOCC1 | > 1
CC(C)(Oc1cccc(Cl)c1)C(=O)N[C@H](Cc1ccccc1)C(=O)NCCCN1CCOCC1 | 0.31
O=C(N[C@@H](Cc1ccccc1)C(=O)NCCCN1CCOCC1)c1ccccc1-c1ccccc1 | > 10
CC(C)c1ccc(Oc2ccc(NC(=O)N[C@H](Cc3ccccc3)C(=O)NCCCN3CCOCC3)cc2)cc1 | 0.2
CC(C)(Oc1cccc(Cl)c1)C(=O)N[C@@H](Cc1ccccc1)C(=O)NCCCN1CCOCC1 | > 1
O=C(Nc1ccc(OCc2ccc(C(F)(F)F)cc2)cc1)N[C@@H](Cc1ccccc1)C(=O)NCCCN1CCOCC1 | 0.79
CC(C)(Oc1ccccc1-c1ccccc1)C(=O)N[C@@H](Cc1ccccc1)C(=O)NCCCN1CCOCC1 | 3.1
CC(C)(Nc1ccccc1Oc1ccccc1)C(=O)N[C@H](Cc1ccccc1)C(=O)NCCCN1CCOCC1 | > 3
CC(C)(Oc1ccc(-c2ccccc2)cc1)C(=O)N[C@H](Cc1ccccc1)C(=O)NCCCN1CCOCC1 | 7.9
COc1ccc(Oc2ccc(NC(=O)N[C@@H](Cc3ccccc3)C(=O)NCCCN3CCOCC3)cc2)cc1 | 0.31
O=C(Nc1ccccc1)N[C@@H](Cc1ccccc1)C(=O)NCCCN1CCOCC1 | > 10
CN(C(=O)N[C@H](Cc1ccccc1)C(=O)NCCCN1CCOCC1)c1cccc(Oc2cccc(F)c2)c1 | > 1
CC(C)(Oc1ccc(F)cc1)C(=O)N[C@H](Cc1ccccc1)C(=O)NCCCN1CCOCC1 | > 1
CC(C)c1ccc(Oc2ccc(NC(=O)N[C@@H](Cc3ccccc3)C(=O)NCCCN3CCOCC3)cc2)cc1 | 0.063
CC(C)(Oc1ccc(F)cc1)C(=O)N[C@@H](Cc1ccccc1)C(=O)NCCCN1CCOCC1 | > 1
